The source made the active and inactive calls. The rule behind the calls is not given here.
Assays:
[1] = Inhibition of mouse heart mitochondrial F0F1-ATP synthase hydrolytic activity incubated for 10 mins by microplate reader analysis; assay type: mitochondria, Mitochondria
Mus musculus [2] = species: Mus musculus; test: Inhibition of mouse heart mitochondrial F0F1-ATP synthase hydrolytic activity at 200 uM incubated for 10 mins by microplate reader analysis relative to control; conditions: Mitochondria
H9c2 [3] = test: Induction of mitochondrial membrane potential loss in rat H9c2 cells assessed as increase in fluorescence intensity at 100 uM in presence of rotenone by TMRM dye based assay; assay type: cell-based
H9c2 [4] = test: Induction of mitochondrial membrane potential loss in rat H9c2 cells assessed as increase in fluorescence intensity at 50 uM in presence of rotenone by TMRM dye based assay; assay type: cell-based
H9c2 [5] = test: Induction of mitochondrial membrane potential loss in rat H9c2 cells assessed as increase in fluorescence intensity at 10 uM in presence of rotenone by TMRM dye based assay; assay type: cell-based
H9c2 [6] = test: Cytotoxicity against rat H9c2 cells assessed as reduction in cell viability at 100 uM incubated for 24 hrs by MTT assay; assay type: toxicity, cell-based; conditions: h9c2, 24 h
H9c2 [7] = test: Cytotoxicity against rat H9c2 cells assessed as reduction in cell viability at 50 uM incubated for 24 hrs by MTT assay; assay type: toxicity, cell-based; conditions: h9c2, 24 h
H9c2 [8] = test: Induction of mitochondrial membrane potential loss in rat H9c2 cells assessed as increase in fluorescence intensity at 10 uM by TMRM dye based assay; assay type: cell-based
H9c2 [9] = test: Cytotoxicity against rat H9c2 cells assessed as reduction in cell survival at 100 uM incubated for 24 hrs by MTT assay; assay type: toxicity, cell-based; conditions: h9c2, 24 h
H9c2 [10] = test: Cytotoxicity against rat H9c2 cells assessed as reduction in cell survival at 10 to 50 uM incubated for 24 hrs by MTT assay; assay type: toxicity, cell-based; conditions: h9c2, 24 h, dose 10-50 µM
Mus musculus [11] = species: Mus musculus; test: Effect on mPTP opening in C57BL6 mouse heart mitochondria assessed as number of calcium pulses by measuring green-5N fluorescence intensity at 10 to 1000 uM by calcium retention capacity assay; conditions: dose 10-1000 µM
Mus musculus [12] = species: Mus musculus; test: Effect on mPTP opening in C57BL6 mouse heart mitochondria assessed as number of calcium pulses by measuring green-5N fluorescence intensity at 10 to 1000 uM in presence of cyclosporin A by calcium retention capacity assay; conditions: dose 10-1000 µM
Mus musculus [13] = species: Mus musculus; test: Inhibition of mouse heart mitochondrial F0F1-ATP synthase hydrolytic activity at 200 uM incubated for 10 mins by microplate reader analysis; conditions: Mitochondria
H9c2 [14] = test: Induction of mitochondrial membrane potential loss in rat H9c2 cells assessed as increase in fluorescence intensity at 50 to 100 uM in presence of rotenone by TMRM dye based assay; assay type: cell-based; conditions: dose 50-100 µM
H9c2 [15] = test: Induction of mitochondrial membrane potential loss in rat H9c2 cells assessed as increase in fluorescence intensity at 0.1 to 100 uM by TMRM dye based assay; assay type: cell-based; conditions: dose 0.1-100 µM
H9c2 [16] = test: Cytotoxicity against rat H9c2 cells assessed as reduction in cell survival at 0.1 to 100 uM incubated for 24 hrs by MTT assay; assay type: toxicity, cell-based; conditions: h9c2, 24 h, dose 0.1-100 µM
H9c2 [17] = test: Cytotoxicity against rat H9c2 cells assessed as reduction in cell survival at 10 to 100 uM incubated for 24 hrs by MTT assay; assay type: toxicity, cell-based; conditions: h9c2, 24 h, dose 10-100 µM
Mus musculus [18] = test: Cardioprotective activity against cardiac ischemia/reperfusion induced C57BL/6J mouse model assessed as reduction in cardiac infarct size at 3.5 mg/kg, iv prior to 5 mins of myocardial ischemia and 2 hrs of reperfusion (Rvb= 45.4 +/- 1.8 %); assay type: functional; parameters: scale not given: the % may be the effect or the level left; conditions: time 125 min, 2.083 h
Mus musculus [19] = test: Cardioprotective activity against cardiac ischemia/reperfusion induced C57BL/6J mouse model assessed as reduction in cardiac infarct size at 5 mg/kg, iv measured after 5 mins of myocardial ischemia and 2 hrs of reperfusion (Rvb= 45 +/- 2.2 %); assay type: functional; parameters: scale not given: the % may be the effect or the level left; conditions: time 125 min, 2.083 h
Mus musculus [20] = test: Cardioprotective activity against cardiac ischemia/reperfusion induced C57BL/6J mouse model assessed as reduction in cardiac infarct size at 5 mg/kg, iv measured after 25 mins of myocardial ischemia and 2 hrs of reperfusion (Rvb= 47.8 +/- 3.4 %); assay type: functional; parameters: scale not given: the % may be the effect or the level left; conditions: time 145 min, 2.417 h
Mus musculus [21] = test: (§1) Cardioprotective activity against cardiac ischemia/reperfusion induced C57BL/6J mouse model assessed as increase in ATP level at 3.5 mg/kg, iv preincubated under ischemic condition for 30 mins followed by compound addition for 5 mins and subsequent incubation under reperfusion for 10 mins; assay type: functional, organism-based; conditions: time 15.0 min
Mus musculus [22] = test: as §1, with “increase in Akt phosphorylation at 3.5” for “increase in ATP level at 3.5”, “10 mins by Western blot analysis” for “10 mins”; assay type: functional, organism-based; conditions: time 15.0 min
Mus musculus [23] = test: as §1, with “increase in ERK1/2 phosphorylation at 3.5” for “increase in ATP level at 3.5”, “10 mins by Western blot analysis” for “10 mins”; assay type: functional, organism-based; conditions: time 15.0 min
Mus musculus [24] = test: as §1, with “increase in GSK3beta phosphorylation at S9 fraction at 3.5” for “increase in ATP level at 3.5”, “10 mins by Western blot analysis” for “10 mins”; assay type: functional, organism-based; conditions: time 15.0 min
Mus musculus [25] = test: as §1, with “assessed as effect on Akt level at” for “assessed as increase in ATP level at”, “10 mins by Western blot analysis” for “10 mins”; assay type: functional, organism-based; conditions: time 15.0 min
Mus musculus [26] = test: as §1, with “assessed as effect on ERK1/2 level at” for “assessed as increase in ATP level at”, “10 mins by Western blot analysis” for “10 mins”; assay type: functional, organism-based; conditions: time 15.0 min
Mus musculus [27] = test: as §1, with “assessed as effect on GSK3beta level at” for “assessed as increase in ATP level at”, “10 mins by Western blot analysis” for “10 mins”; assay type: functional, organism-based; conditions: time 15.0 min
Mus musculus [28] = test: as §1, with “increase in Bcl-XL expression at 3.5” for “increase in ATP level at 3.5”, “10 mins by Western blot analysis” for “10 mins”; assay type: functional, organism-based; conditions: time 15.0 min
Mus musculus [29] = test: as §1, with “increase in Bax expression at 3.5” for “increase in ATP level at 3.5”, “10 mins by Western blot analysis” for “10 mins”; assay type: functional, organism-based; conditions: time 15.0 min
Mus musculus [30] = test: as §1, with “increase in cleaved caspase-3 expression at 3.5” for “increase in ATP level at 3.5”, “10 mins by Western blot analysis” for “10 mins”; assay type: functional, organism-based; conditions: time 15.0 min
H9c2 [31] = test: Induction of mitochondrial membrane potential loss in rat H9c2 cells assessed as increase in fluorescence intensity at 100 uM by TMRM dye based assay; assay type: cell-based
Mus musculus [32] = test: Cardioprotective activity against cardiac ischemia/reperfusion induced C57BL/6J mouse model assessed as reduction in cardiac infarct size at 5 mg/kg, iv prior to 5 mins of myocardial ischemia and 2 hrs of reperfusion (Rvb= 45.4 +/- 1.8 %); assay type: functional; parameters: scale not given: the % may be the effect or the level left; conditions: time 125 min, 2.083 h
H9c2 [33] = test: Induction of mitochondrial membrane potential loss in rat H9c2 cells assessed as increase in fluorescence intensity at 50 uM by TMRM dye based assay; assay type: cell-based
H9c2 [34] = test: Cytotoxicity against rat H9c2 cells assessed as reduction in cell survival at 50 uM incubated for 24 hrs by MTT assay; assay type: toxicity, cell-based; conditions: h9c2, 24 h
H9c2 [35] = test: Induction of mitochondrial membrane potential loss in rat H9c2 cells assessed as increase in fluorescence intensity at 3 uM in presence of rotenone by TMRM dye based assay; assay type: cell-based
H9c2 [36] = test: Induction of mitochondrial membrane potential loss in rat H9c2 cells assessed as increase in fluorescence intensity at 3 uM by TMRM dye based assay; assay type: cell-based
H9c2 [37] = test: Induction of mitochondrial membrane potential loss in rat H9c2 cells assessed as increase in fluorescence intensity at 10 to 100 uM in presence of rotenone by TMRM dye based assay; assay type: cell-based; conditions: dose 10-100 µM
H9c2 [38] = test: Cytotoxicity against rat H9c2 cells assessed as reduction in cell viability at 50 to 100 uM incubated for 24 hrs by MTT assay; assay type: toxicity, cell-based; conditions: h9c2, 24 h, dose 50-100 µM
H9c2 [39] = test: Cytotoxicity against rat H9c2 cells assessed as reduction in cell viability at 10 to 100 uM incubated for 24 hrs by MTT assay; assay type: toxicity, cell-based; conditions: h9c2, 24 h, dose 10-100 µM

SMILES: COc1ccc(Cn2nc(-c3ccccc3)c3cc(Cl)nc(N4CCNCC4)c32)cc1
- IC50 [1]: 151 µM
- inhibition (Mus musculus [2]): 50%
- Activity (H9c2 [3]): Active
- Activity (H9c2 [4]): Active
- Activity (H9c2 [5]): inactive
- Activity (H9c2 [6]): Toxic
- Activity (H9c2 [7]): Non-Toxic
- Activity (H9c2 [8]): inactive
- Activity (H9c2 [9]): Toxic
- Activity (H9c2 [10]): Non-Toxic
- Activity (Mus musculus [11]): inactive
- Activity (Mus musculus [12]): inactive

SMILES: COc1ccc(Cn2nc(-c3ccccc3)c3cc(Nc4ccc(N5CCN(C)CC5)cc4)nc(N4CCOCC4)c32)cc1
- IC50 [1]: 98.5 µM
- inhibition (Mus musculus [13]): Active
- Activity (H9c2 [14]): Active
- Activity (H9c2 [15]): inactive
- Activity (H9c2 [16]): Non-Toxic
- Activity (H9c2 [17]): Non-Toxic
- Activity (Mus musculus [18]): 25.6%
- Activity (Mus musculus [19]): 23.1%
- Activity (Mus musculus [20]): 40.4%
- Activity (Mus musculus [21]): Active
- Activity (Mus musculus [22]): Active
- Activity (Mus musculus [23]): Active
- Activity (Mus musculus [24]): Active
- Activity (Mus musculus [25]): Active
- Activity (Mus musculus [26]): Active
- Activity (Mus musculus [27]): Active
- Activity (Mus musculus [28]): Active
- Activity (Mus musculus [29]): Active
- Activity (Mus musculus [30]): Active

SMILES: O=C(Oc1cc(S(=O)(=O)c2ccccc2)ccc1[N+](=O)[O-])c1ccc(Cl)cc1
- IC50 [1]: 347 µM
- Activity (H9c2 [4]): inactive
- Activity (H9c2 [31]): inactive
- Activity (H9c2 [9]): Non-Toxic
- Activity (Mus musculus [32]): 39.6%

SMILES: COc1ccc(Cn2nc(-c3ccccc3)c3cc(Nc4ccc(N5CCN(C)CC5)cc4)nc(N4CCN(C)CC4)c32)cc1
- IC50 [1]: 85.5 µM
- Activity (H9c2 [3]): Active
- Activity (H9c2 [4]): Active
- Activity (H9c2 [5]): inactive
- Activity (H9c2 [6]): Toxic
- Activity (H9c2 [33]): inactive
- Activity (H9c2 [8]): inactive
- Activity (H9c2 [9]): Toxic
- Activity (H9c2 [34]): Non-Toxic
- Activity (Mus musculus [11]): inactive
- Activity (Mus musculus [12]): inactive
- Activity (Mus musculus [18]): 34.8%

SMILES: Oc1ccc(/C=C/c2cc(O)cc(O)c2)cc1 [RESVERATROL]
- IC50 [1]: 65.6 µM

SMILES: Oc1ccc(/C=C/c2c3c(cc4c2[C@H](c2cc(O)cc(O)c2)[C@@H](c2ccc(O)cc2)O4)O[C@H](c2ccc(O)cc2)[C@H]3c2cc(O)cc(O)c2)cc1
- IC50 [1]: 162 µM
- inhibition (Mus musculus [2]): 50%

SMILES: O=c1c(O)c(-c2ccc(O)c(O)c2)oc2cc(O)cc(O)c12 [QUERCETIN]
- IC50 [1]: 128 µM

SMILES: CC[C@@H]1/C=C/C=C/C[C@H](C)[C@@H](O)[C@](C)(O)C(=O)[C@H](C)[C@@H](O)[C@H](C)C(=O)[C@H](C)[C@@H](O)[C@H](C)/C=C/C(=O)O[C@H]2[C@@H](C)[C@@H](CC1)O[C@@]1(CC[C@@H](C)[C@@H](C[C@H](C)O)O1)[C@@H]2C
- IC50 [1]: 18.5 µM
- Activity (H9c2 [35]): Active
- Activity (H9c2 [36]): inactive
- Activity (H9c2 [5]): inactive
- Activity (H9c2 [8]): inactive

SMILES: COc1ccc(Cn2nc(-c3ccccc3)c3cc(Nc4ccc(N5CCN(C)CC5)cc4)nc(N4CCNCC4)c32)cc1
- IC50 [1]: 107 µM
- Activity (H9c2 [3]): Active
- Activity (H9c2 [4]): Active
- Activity (H9c2 [5]): inactive
- Activity (H9c2 [6]): Toxic
- Activity (H9c2 [33]): inactive
- Activity (H9c2 [8]): inactive
- Activity (H9c2 [34]): Non-Toxic
- Activity (Mus musculus [11]): inactive
- Activity (Mus musculus [12]): inactive
- Activity (Mus musculus [18]): 33.4%

SMILES: COc1ccc(Cn2nc(-c3cccc(F)c3)c3cc(Nc4ccc(N5CCN(C)CC5)cc4)nc(N4CCN(C)CC4)c32)cc1
- IC50 [1]: 164 µM
- inhibition (Mus musculus [13]): Active
- Activity (H9c2 [37]): Active
- Activity (H9c2 [38]): Toxic
- Activity (H9c2 [39]): Non-Toxic

SMILES: COc1cc2oc(-c3ccc(O)cc3O)c(C=O)c2c(O)c1CC=C(C)C
- IC50 [1]: 303 µM

SMILES: COc1ccc(Cn2nc(-c3cccc(F)c3)c3cc(Nc4ccc(N5CCN(C)CC5)cc4)nc(N4CCOCC4)c32)cc1
- IC50 [1]: 1980 µM
- inhibition (Mus musculus [13]): Active

SMILES: Oc1ccc(/C=C/c2cc(O)cc3c2[C@H](c2cc(O)cc(O)c2)[C@@H](c2ccc(O)cc2)O3)cc1
- IC50 [1]: 756 µM

From ChEMBL document CHEMBL5390279, “Hydrolytic Activity of Mitochondrial F1FO-ATP Synthase as a Target for Myocardial Ischemia-Reperfusion Injury: Discovery and In Vitro and In Vivo Evaluation of Novel Inhibitors” (J Med Chem, 2023)
